Laboratory results taken from patent US9757375B2, “Compounds that inhibit human DNA ligases and methods of treating cancer” (University of Maryland, Baltimore, priority 2007, dated 2017).
Read-outs that look alike come from different tables or passages of the source.

Experiments:
[1] = test system: MCF10A cells; assay: MTT cell growth assay; format: cell-based, human; conditions: for IC50: Homo sapiens, MCF-10A
Procedure, shortened: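 Seeded at 300 cells/well and allowed to adhere overnight, then serial compound dilutions in medium added for 5 days. MTT added for a further 4 h, formazan dissolved in isopropanol, and absorbance read at 560 nm.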

[2] = test system: MCF7 cells; assay: Colony forming (survival) assay; format: cell-based, human
Method: For survival assays, cells were plated in 6 well plates and grown either in the absence or presence of ligase inhibitors. Where indicated, either MMS (0-50 μM) was added to the medium or the cells were irradiated in a Cs-137 irradiator (0-2.5 Gy). After two weeks, colonies were stained with crystal violet (Sigma) and then counted.
To confirm that the DNA ligase inhibitors directly kill cells and potentiate cell killing by DNA damaging agents, we performed colony forming assays.
Different concentrations of Compound 184 were added to asynchronous subconfluent populations of HCT116, MCF7 and MCF10A cells. Colonies were counted after two weeks. (FIG. 6A).
Different concentrations of Compound 67 were added to asynchronous subconfluent populations of HCT116, MCF7 and MCF10A cells. After 1 hour, cultures were irradiated with 2 gray of ionizing radiation. Different concentrations of Compound 67 were added to asynchronous subconfluent populations of HCT116 and MCF10A cells in the absence or presence of MMS (50 μM). Colonies were counted after two weeks. (FIG. 6D).

[3] = test system: MCF10A, MCF7, HCT116, and HeLa cells; assay: Cell viability after 6 days on cell panel (FIG. 8); format: cell-based, human; conditions: FIG. 8, 6 days viability; MCF7 colonies, cell cycle
Method: FIG. 8. […] A, MCF10A (▪), MCF7 (♦), HCT116 (▴), and HeLa (upsidedown triangle) cells were plated in the absence or presence of L82 (left), L67 (middle), and L189 (right). After 6 days, cell viability was measured and is expressed as a percentage of the value obtained with untreated cells. B, MCF7 cells were plated out in the absence or presence of L82 (top) and L67 (bottom) at the indicated concentrations. After 2 weeks, colonies were stained with crystal violet. C, after serum starvation for 4 days, MCF 7 cells were returned to serum-containing media either without (▪) or with 50 μmol/L of L82 (●). The cell cycle distribution at various time intervals was determined by fluorescence-activated cell sorting. D, asynchronous populations of MCF cells were either untreated (top) or treated with L82 at 10 μmol/L (middle) and 50 μmol/L (bottom). After 3 days, tubulin and DNA were visualized by fluorescence microscopy (bars, […]).

[4] = test system: Human DNA ligases I, III and IV and T4 DNA ligase; assay: Step 2 of the ligation reaction: DNA-AMP (DNA-adenylate) formation on non-ligatable nick; format: biochemical
Method: To analyze step 2 of the ligation reaction, labeled ligase-AMP intermediates (10 pmol (22)) were incubated overnight at 25° C. with an unlabeled nonligatable version (dideoxy residue at the 3′-terminus of the nick) of the DNA oligonucleotide substrate (10 pmol), either in the presence or absence of the ligase inhibitors (100 μmol/L).
Since the final two steps of the ligation reaction involve interactions with DNA, we examined the effects of the ligase inhibitors on the second (FIG. 3B) (The labeled ligase-adenylate form of human DNA ligases I, III and IV and T4 DNA ligase were incubated with a linear DNA substrate containing a single non-ligatable nick in the absence or presence of compounds 67, 82 and 189 (100 μM). After separation by denaturing gel electrophoresis, the labeled DNA-AMP complex was detected by phosphorimaging (26)) and third steps (FIG. 3C) of the ligation reaction using established assays (25,26) (Non-adenylated human DNA ligases I, III and IV and T4 DNA ligase were incubated with labeled DNA-AMP in the absence or presence of compounds 67, 82 and 189 (100 μM). After separation by denaturing gel electrophoresis, labeled ligated DNA was detected by phosphorimaging (25)).

[5] = cell growth, compound alone, read-out: IC50 (μM) MCF10A
[6] = sections 'high concentrations (~50 μM)' and 'active in vitro that decreased cell growth', same figures given in μM elsewhere in Table 6, read-out: IC50 MCF10A (head without unit)

Row | Structure (SMILES) | IC50 [1, 5] | IC50 [1, 6] | other results
1 | O=C(O)CSc1cc(Cl)c2nonc2c1[N+](=O)[O-] [Compound 64] | 50 µM | 50 µM | potentiation of the growth inhibitory effect of 3 aminobenzamide ([1]; MCF10A cells, 3 aminobenzamide 2 mM, 5 days, MTT, FIG. 5B): markedly potentiates
2 | Cc1c(Br)cc(NCC(=O)N/N=C\c2cc([N+](=O)[O-])ccc2O)cc1Br [Compound 67] | 4 µM | 4 µM | potentiation of killing by ionizing radiation ([2]; MCF7, 2 gray, FIG. 6D): potentiates; potentiation of killing by MMS ([2]; MCF7, MMS, FIG. 6D): potentiates
3 | O=c1[nH]ncc(N/N=C\c2ccc(O)c([N+](=O)[O-])c2)c1Cl [Compound 82] | – | – | effect on cell viability / growth, in words [3]: cytostatic effect
4 | O=C(Cn1cnc([N+](=O)[O-])n1)N/N=C/c1ccc(O)cc1O [Compound 151] | 6 µM | 6 µM | –
5 | O=C1Nc2ccccc2Oc2cc([N+](=O)[O-])cc([N+](=O)[O-])c21 [Compound 180] | 3 µM | 3 µM | –
6 | CS(=O)(=O)NNC(=O)C(=O)NNc1ccccc1 [Compound 184] | – | – | cell killing (colony formation) ([2]; MCF7, compound alone, compared with MCF10A, FIG. 6A): more effective at killing
7 | Nc1nc(S)nc(O)c1/N=C/c1ccccc1 [Compound 189] | – | – | inhibition of step 2 of the ligation reaction ([4]; 100 μM, FIG. 3B): inhibits step 2; Mechanism: ligation step inhibited (2nd step) ([4]; Table 5A): 2nd
8 | O=C(c1ccc(O)cc1)c1ccccc1O [Compound 200] | ~5 µM | 10 to 150 µM | –
